Where a name gives a salt, the structure may show the parent alone.

The nature of one series: in vitro. Particulars: rat, gh3-tre-luc cells, AC50 (uM) modified / 1000.
Take `COCC(C)O` (stereo not drawn) [1-Methoxy-2-propanol]: the half-maximal cytotoxic concentration (CC50) at 24 h is above 90 µM.

Molecule `COCC(C)OC(C)=O` (stereo not drawn) [1-Methoxy-2-propyl acetate] came in with a CC50 at 24 h above 90 µM.

In the case of `COCC(C)N` (stereo not drawn) [1-Methoxy-2-propylamine], the CC50 at 24 h is above 90 µM.

On to `COc1ccc(C)cc1[N+](=O)[O-]` [1-Methoxy-4-methyl-2-nitrobenzene], for which the CC50 at 24 h is above 90 µM.

On to `COc1ccc(C)cc1` [1-Methoxy-4-methylbenzene], for which the CC50 at 24 h was above 90 µM.

In the case of `CCC(C)(C)C1CCC(OC)CC1` (stereo not drawn) [1-Methoxy-4-tert-pentylcyclohexane], the CC50 at 24 h was above 90 µM.

`CCC[N+]1(C)CCCCC1` [1-Methyl-1-propylpiperidinium bromide] had a CC50 at 24 h above 90 µM.

The molecule `CCC[N+]1(C)CCCC1` [1-Methyl-1-propylpyrrolidinium bromide] registered a CC50 at 24 h above 90 µM.

`CCCCCCCCCCCCCCCCCC[n+]1ccn(C)c1` [1-Methyl-3-octadecylimidazolium hexafluorophosphate] showed a CC50 at 24 h of 9.82 µM.

Consider `Cc1cccc(Oc2ccccc2)c1` [1-Methyl-3-phenoxybenzene], for which the CC50 at 24 h is above 90 µM.

Take `CCCn1cc[n+](C)c1` [1-Methyl-3-propylimidazolium iodide]: the CC50 at 24 h is above 90 µM.

`Cn1c(N)nc2nc[nH]c2c1=O` [1-Methylguanine]: the CC50 at 24 h is above 90 µM.

Take `Cc1cccc2ccccc12` [1-Methylnaphthalene]: the CC50 at 24 h is above 90 µM.

`Cc1ccc2ccc3cccc4ccc1c2c34` [1-Methylpyrene] yielded a CC50 at 24 h above 90 µM.

Molecule `CCCCCCCCCCCC(=O)OCC(O)CO` (stereo not drawn) [1-Monolaurin] showed a CC50 at 24 h above 90 µM.

As to `NC(=O)Cc1cccc2ccccc12` [1-Naphthaleneacetamide], the CC50 at 24 h is above 90 µM.

The molecule `N#[N+]c1ccc2c(S(=O)(=O)[O-])cccc2c1O` [1-Naphthalenesulfonic acid, 6-diazo-5,6-dihydro-5-oxo, sodium salt] showed a CC50 at 24 h above 90 µM.

On to `Oc1cccc2ccccc12` [1-Naphthol], for which the CC50 at 24 h was above 90 µM.

As to `O=[N+]([O-])c1ccccc1C(F)(F)F` [1-Nitro-2-(trifluoromethyl)benzene], the CC50 at 24 h is above 90 µM.

In turn, `Cc1ccc2ccccc2c1[N+](=O)[O-]` [1-Nitro-2-methylnaphthalene] came in with a CC50 at 24 h above 90 µM.

Molecule `O=[N+]([O-])c1cccc(C(F)(F)F)c1` [1-Nitro-3-(trifluoromethyl)benzene] displayed a CC50 at 24 h above 90 µM.

Take `CCCC[N+](=O)[O-]` [1-Nitrobutane]: the CC50 at 24 h is above 90 µM.

The molecule `CCCCCC[N+](=O)[O-]` [1-Nitrohexane] came in with a CC50 at 24 h above 90 µM.

As to `O=[N+]([O-])c1cccc2ccccc12` [1-Nitronaphthalene], the 50% cytotoxic concentration (CC50) at 24 h was above 90 µM.

As for `O=[N+]([O-])c1ccc2ccc3cccc4ccc1c2c34` [1-Nitropyrene], the CC50 at 24 h was above 90 µM.

`CCCCCCCCCO` [1-Nonanol]: the CC50 at 24 h was above 90 µM.

In turn, `CCCCCCOc1cc(C)c(O)c(C)c1C` [1-O-Hexyl-2,3,5-trimethylhydroquinone] returned a CC50 at 24 h of 42.6 µM.

Take `COCC(O)CO` (stereo not drawn) [1-O-Methylglycerol]: the CC50 at 24 h is above 100 µM.

Molecule `CCCCCCCCCCCCCCCCCCO` [1-Octadecanol] came in with a CC50 at 24 h above 50 µM.

With `C=CCCCCCCCCCCCCCCCC` [1-Octadecene], the CC50 at 24 h is above 5 µM.

`CCCCCCCCN` [1-Octanamine] had a CC50 at 24 h above 90 µM.

With `CCCCCCCCS(=O)(=O)Cl` [1-Octanesulfonyl chloride], the CC50 at 24 h was above 90 µM.

The molecule `CCCCCCCCS` [1-Octanethiol] displayed a CC50 at 24 h above 90 µM.

`CCCCCCCCO` [1-Octanol] showed a CC50 at 24 h above 90 µM.

As to `C=CC(O)CCCCC` (stereo not drawn) [1-Octen-3-ol], the CC50 at 24 h is above 90 µM.

As for `C=CC(=O)CCCCC` [1-Octen-3-one], the CC50 at 24 h was above 100 µM.

Molecule `C=CCCCCCC` [1-Octene] registered a CC50 at 24 h above 90 µM.

Molecule `CCCCCCCCN1CCCC1=O` [1-Octyl-2-pyrrolidone] displayed a CC50 at 24 h above 90 µM.

In turn, `C#CC(O)CCCCC` (stereo not drawn) [1-Octyn-3-ol] yielded a CC50 at 24 h above 90 µM.

As for `CCCCCCCCCCCCCCCO` [1-Pentadecanol], the CC50 at 24 h was above 90 µM.

`CCCCCO` [1-Pentanol] had a CC50 at 24 h above 90 µM.

For `C=CCCC` [1-Pentene], the CC50 at 24 h is above 90 µM.

Molecule `CC(O)COc1ccccc1` (stereo not drawn) [1-Phenoxy-2-propanol] displayed a CC50 at 24 h above 90 µM.

The molecule `CCC(O)c1ccccc1` (stereo not drawn) [1-Phenyl-1-propanol] came in with a CC50 at 24 h above 50 µM.

`O=C1C=CC(=O)N1c1ccccc1` [1-Phenyl-1H-pyrrole-2,5-dione] returned a CC50 at 24 h of 5.48 µM.

As for `c1ccc(-n2cnnn2)cc1` [1-Phenyl-1H-tetrazole], the CC50 at 24 h was above 50 µM.

The molecule `CN(C)N=Nc1ccccc1` [1-Phenyl-3,3-dimethyltriazene] showed a CC50 at 24 h above 90 µM.

`CC1=NN(c2ccccc2)C(=O)C1` [1-Phenyl-3-methyl-5-pyrazolone] yielded a CC50 at 24 h above 90 µM.

`CCC(=O)OC(C)c1ccccc1` (stereo not drawn) [1-Phenylethyl propionate] yielded a CC50 at 24 h above 90 µM.

`CCCCCCCCCCCc1ccccc1` [1-Phenylundecane] registered a CC50 at 24 h above 90 µM.

Regarding `NC(=O)Nc1ccccc1` [1-Phenylurea], the CC50 at 24 h was above 90 µM.

`OCCN1CCNCC1` [1-Piperazineethanol] displayed a CC50 at 24 h above 90 µM.

`CCCO` [1-Propanol] had a CC50 at 24 h above 90 µM.

In turn, `CCCOCC(C)O` (stereo not drawn) [1-Propoxy-2-propanol] showed a CC50 at 24 h above 90 µM.

Take `CCCCCCCCCCCCCCO` [1-Tetradecanol]: the CC50 at 24 h is above 90 µM.

`C=CCCCCCCCCCCCC` [1-Tetradecene] came in with a CC50 at 24 h above 90 µM.

As for `OCC(O)CS` (stereo not drawn) [1-Thioglycerol], the CC50 at 24 h is above 90 µM.

Regarding `CCCCCCCCCCCCCO` [1-Tridecanol], the CC50 at 24 h was above 90 µM.

In the case of `C=CCCCCCCCCCCC` [1-Tridecene], the CC50 at 24 h is above 5 µM.

For the molecule `CCCCCCCCCCCO` [1-Undecanol], the CC50 at 24 h was above 90 µM.

Take `FC(F)(F)c1ccccc1-n1ccnc1` [1-[2-(Trifluoromethyl)phenyl]-1H-imidazole]: the CC50 at 24 h is above 50 µM.

With `CCN(CC)c1ccc(N=Nc2ccc(S(=O)(=O)N(C)C)cc2)c(S(=O)(=O)NCC[n+]2ccccc2)c1` [1-[2-({[5-Diethylamino)-2-{[4-(dimethylsulfamoyl)phenyl]diazenyl}phenyl]sulfonyl}amino)ethyl]pyridinium chloride], the CC50 at 24 h is above 50 µM.

The series is the same for the next values; noted with them: rat, gh3-tre-luc cells, AC50 (uM) modified / 1000, Tox21_110001=Tox21_111849; viability, 1 nM T3 present, 24 h.
As to `N#CC1(N2CCCCC2)CCCCC1` [1-Piperidinocyclohexanecarbonitrile], the CC50 at 24 h was above 50 µM.

The same series, now with this note: rat, gh3-tre-luc cells, AC50 (uM) modified / 1000, Tox21_110001=Tox21_112759; viability, 1 nM T3 present, 24 h.
`S=C(S)N1CCNCC1` [1-Piperazinecarbodithioic acid] had a CC50 at 24 h above 50 µM.

The series is the same for the next values; noted with them: rat, gh3-tre-luc cells, AC50 (uM) modified / 1000, Tox21_110001=Tox21_112832; viability, 1 nM T3 present, 24 h.
`CCC(=O)OC1(c2ccccc2)CCN(C)CC1` [1-Methyl-4-phenyl-4-propionoxypiperidine hydrochloride] yielded a CC50 at 24 h above 100 µM.

Staying with this series, now noted: rat, gh3-tre-luc cells, AC50 (uM) modified / 1000, Tox21_110001=Tox21_112881; viability, 1 nM T3 present, 24 h.
`NC1(c2ccccc2)CCCCC1` [1-Phenylcyclohexylamine hydrochloride] yielded a CC50 at 24 h of 40.7 µM.

The same series, now with this note: rat, gh3-tre-luc cells, AC50 (uM) modified / 1000, Tox21_110001=Tox21_201682; viability, 1 nM T3 present, 24 h.
In turn, `NC(=S)Nc1ccccc1` [1-Phenyl-2-thiourea] displayed a CC50 at 24 h above 90 µM.

Still in this series, the particulars now being: rat, gh3-tre-luc cells, AC50 (uM) modified / 1000, Tox21_110001=Tox21_202289; viability, 1 nM T3 present, 24 h.
`CCC[N+](=O)[O-]` [1-Nitropropane] had a CC50 at 24 h above 90 µM.

The same series, now with this note: rat, gh3-tre-luc cells, AC50 (uM) modified / 1000, Tox21_110001=Tox21_302025; viability, 1 nM T3 present, 24 h.
`CCC(=O)c1ccccc1` [1-Phenylpropan-1-one] had a CC50 at 24 h above 90 µM.

These data come from PMC6792352, “Limited Chemical Structural Diversity Found to Modulate Thyroid Hormone Receptor in the Tox21 Chemical Library” (Environmental Health Perspectives, 2019).
